Results taken from paper PMC7069095, “A cell-permeable peptide-based PROTAC against the oncoprotein CREPT proficiently inhibits pancreatic cancer” (Theranostics, 2020).
Non-standard residues stand in square brackets, D forms with d. Residues, ends and D or L forms follow the SMILES beside them. Hyp = O=C(O)[C@@H]1C[C@@H](O)CN1; Ahx = NCCCCCC(=O)O

Assays:
[1] = Circular dichroism (CD) spectroscopy; assay type: physicochemical; details: 0.1 mg/mL in deionized water, room temperature
Method: All peptides were dissolved in the deionized water at a final concentration of 0.1 mg/mL. The CD spectra were measured by using a 1 nm bandwidth with a 1 nm step resolution from 190 to 260 nm at room temperature (Jasco spectropolarimeter, Japan). Final spectra were obtained from the average of three parallel scans after subtracting a spectrum of deionized water recorded under the same conditions. Each sample was scanned thrice and the averaged spectrum was smoothed. The helicity were calculated by CDNN 2.1 [59], [60].

MIA PaCa-2 cells = test: Colony formation; assay type: cell-based; details: 10 μM, than the control cells
Method: (§1) Cells were seeded into 6-well plates (500 cells per well) and cultured for 10 days, then washed with PBS and stained with 0.1% crystal violet. The number of colonies was counted by ImageJ and presented as the mean ± standard deviation (SD) from three individual experiments. […]
(§2) tumorigenesis in AsPc-1 and MIA PaCa-2 cells. (A-B) Colony formation of AsPc-1 respectively treated with deionized H2O (Ctrl), 10 μM PRTC, 10 μM PRTC-m and 10 μM PRTC-v. Cells were seeded into 6-well plates (500 cells per well) and cultured for 8 days.(C) CellproliferationassayofAsPc-1cellstreatedwith deionizedwater(Ctrl), 10μMPRTC,10μM PRTC-m and 10 μM PRTC-v.(D-E) Colony formation of MIA PaCa-2 respectively treated with deionized H2O (Ctrl), 10 μM PRTC, PRTC-m and PRTC-v.(F) Cell proliferation assay of MIA PaCa-2cells treatedwith deionizedH 2O(Ctrl),10μMPRTC, PRTC-mandPRTC-v. (G)Tumor volumesofxenografttumors,whichweremeasuredbycalipers. V=( a× b2)/2(V isvolume, a is the length of the tumor,b is the width of the tumor). (H) Cell proliferation assay of […]
(§3) is anormal pancreatic epithelial cell line.
(§4) (1 picture or pasted object on this page, not shown here)

AsPc-1 cells = test: Colony formation; assay type: cell-based; details: 10 μM, 500 cells per well, 8 days, than the control cells
Method: as §1, §2, §3, §4

[2] = target: T1, endogenous CREPT protein in MIA PaCa-2 cells (Homo sapiens, UniProt Q9NQG5); test: Western blot of endogenous CREPT (degradation); assay type: cell-based; details: 24 h incubation
T1 construct: endogenous protein level of CREPT in Panc-1, AsPc-1 and MIA-PaCa-2 cells; endogenous in cells; host or cells: Panc-1, AsPc-1, MIA PaCa-2
T1 sequence (Q9NQG5 1-326): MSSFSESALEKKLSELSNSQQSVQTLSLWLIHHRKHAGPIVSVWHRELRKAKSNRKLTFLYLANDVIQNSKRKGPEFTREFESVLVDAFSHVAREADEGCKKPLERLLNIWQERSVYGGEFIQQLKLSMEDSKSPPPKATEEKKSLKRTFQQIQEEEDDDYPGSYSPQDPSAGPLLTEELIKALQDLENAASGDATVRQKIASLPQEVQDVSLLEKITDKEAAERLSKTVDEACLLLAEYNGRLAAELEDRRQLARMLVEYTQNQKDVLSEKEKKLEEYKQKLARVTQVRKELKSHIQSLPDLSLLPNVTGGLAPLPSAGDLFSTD
Method: (§5) For exogenous immunoprecipitation assays, HEK293T cells were plated in 60 mm dishes and then transfected with the indicated plasmids. After 24 h, cells were harvested using RIPA buffer (50 mM Tris-HCl pH 8.0, 2 mM EDTA pH 8.0, 150 mM NaCl, 1% NP-40, 0.5% sodium deoxycholate, 0.1% SDS) with mixed protease inhibitors. Cell lysates were incubated with 2 μg of the indicated antibodies and 30 μL of protein A/G-Sepharose beads at 4 °C overnight. Beads were eluted five times with lysis buffer (50 mM Tris-HCl pH 7.6, 1 mM EDTA pH 8.0, 165 mM NaCl, 0.5% NP-40), and thereafter, a western blot assay was performed to analyze the association by using the indicated antibodies. Western blot was performed as previously reported. Anti-β-actin and anti-Flag antibodies were purchased from Sigma. Anti-Myc antibody was purchased from Santa Cruz Biotechnology. Antibody against CREPT was produced in the laboratory.
To address whether PRTC could induce CREPT degradation, we examined the endogenous protein level of CREPT in Panc-1, AsPc-1 and MIA-PaCa-2 cells in the presence of different dosages of PRTC. […] Consistently, treatment with PRTC led to decreases in CREPT protein at different times (Figure 5B, S3A). […] To further visualize the degradation process, we stained the endogenous CREPT protein with an antibody against CREPT in the cells treated with FITC-labeled PRTC.
Figure S3. PRTC induces CREPT degradation. […]

Panc-1 cells [3] = test: Cell viability assay (CCK-8); assay type: cell-based; details: 10 μM, CCK-8, OD450, three individual experiments
Method: Cells were seeded into 96-well plates (1000 cells per well) and cultured for the indicated times. Cell viability was evaluated using a CCK-8 kit (Solarbio, Beijing, China). The value of OD450 was calculated by spectrophotometer and presented as the mean ± standard deviation (SD) from three individual experiments.

[4] = target: T2, ubiquitinated CREPT in Panc-1 cells (Homo sapiens, UniProt Q9NQG5); test: Endogenous IP of CREPT with ubiquitin (Co-IP); assay type: cell-based; details: 10 μM peptide for 24 h
T2 construct: endogenous protein level of CREPT in Panc-1, AsPc-1 and MIA-PaCa-2 cells; endogenous in cells; host or cells: Panc-1, AsPc-1, MIA PaCa-2
T2 sequence (Q9NQG5 1-326): T1 sequence (Q9NQG5 1-326)
Method: as §5
In addition, a Co-IP experiment was performed in Panc-1 cells treated with 10 μM PRTC, PRTC-m or PRTC-v for 24 h. […] In the absence of MG132, the level of ubiquitinated CREPT was further increased by PRTC (Figure 6C, compare lane 1 and lane 2).
Figure 6 The degradation of CREPT by PRTC is dependent on its VHL ligand. (A) Immunoblot of CREPT following 24 h incubation with different dosages of PRTC or PRTC-v in Panc-1 cells. (B) Immunoblot of CREPT exposed to 10 μM PRTC or PRTC-v for different time points in Panc-1 cells. (C) Endogenous IP experiment of CREPT with ubiquitin treated with 10 μM PTRC, PTRC-m or PTRC-v in Panc-1 cells. IP: CREPT, IB: Anti-ubiquitin.

Panc-1 cells [5] = test: Colony formation; assay type: cell-based; details: 500 cells per well, 10 days, than the control cells
Method: Cells were seeded into 6-well plates (500 cells per well) and cultured for 10 days, then washed with PBS and stained with 0.1% crystal violet. The number of colonies was counted by ImageJ and presented as the mean ± standard deviation (SD) from three individual experiments.

Compound: CC[C@H](C)[C@H](N)C(=O)N[C@@H](Cc1ccc(O)cc1)C(=O)N1C[C@H](O)C[C@H]1C(=O)N[C@@H](C)C(=O)N[C@@H](CC(C)C)C(=O)NCCCCCC(=O)N[C@@H](CCCCN)C(=O)N[C@@H](CC(=O)O)C(=O)N[C@H](C(=O)N[C@@H](CC(C)C)C(=O)N[C@@H](CO)C(=O)N[C@@H](CCC(=O)O)C(=O)N[C@@H](CCCCN)C(=O)N[C@@H](CCC(=O)O)C(=O)N[C@@H](CCCCN)C(=O)N[C@@H](CCCCN)C(=O)N[C@@H](CC(C)C)C(=O)N[C@@H](CCC(=O)O)C(=O)N[C@@H](CCC(=O)O)C(=O)N[C@@H](Cc1ccc(O)cc1)C(=O)N[C@@H](CCCCN)C(=O)N[C@@H](CCC(N)=O)C(=O)N[C@@H](CCCCN)C(=O)N[C@@H](CC(C)C)C(=O)N[C@@H](C)C(=O)N[C@@H](CCCNC(=N)N)C(=O)N[C@H](C(=O)N[C@@H](CCCNC(=N)N)C(=O)N[C@@H](CCCNC(=N)N)C(=O)N[C@@H](CCCNC(=N)N)C(=O)N[C@@H](CCCNC(=N)N)C(=O)N[C@@H](CCCCN)C(=O)O)C(C)C)C(C)C [PRTC] (H-IY[Hyp]AL[Ahx]KDVLSEKEKKLEEYKQKLARVRRRRK-OH; N-terminus and C-terminus assumed)
- secondary structure by CD spectrum [1]: α-helix structure
- Helicity ([1]; 190 to 260 nm, average of three scans, calculated by CDNN 2.1): 50.1%
- colony formation (MIA PaCa-2 cells): fewer colonies
- colony formation (AsPc-1 cells): fewer colonies
- CREPT protein level upon different dosages [2]: dramatically decreased
- cell proliferation (Panc-1 cells [3]): dramatically inhibited
- CREPT protein level ([4]; Co-IP experiment): significantly decreased
- ubiquitinated CREPT proteins ([4]; IP: CREPT, IB: anti-ubiquitin): increased
- colony formation (Panc-1 cells [5]): fewer colonies
